# From PMC12220852, “An adamantane‐based ligand as a novel chemical tool for thermosensory TRPM8 channel therapeutic modulation” (The Febs Journal, 2025)
# Tests used:
# [1] = Metabolic stability in mouse plasma; type: in vitro ADME; conditions: after 1 h at 37 °C, 100 μM substrate
# Method: Because of the lack of systemic activity of compound 23, we evaluated the in vitro plasmatic and hepatic metabolic stability. To this aim, compound 23 was exposed to mouse plasma and mouse liver microsome (MLM) fractions, and the residual substrate was measured after 1 h. Under these conditions, the residual substrate was about 97% and 90% in plasma and microsomes, respectively, denoting that this molecule suffers from mild hydrolysis of the ester group.
# The standard incubation mixture (100 μL final volume) was carried out by dissolving the tested substrate (100 μM) in DMSO (5% final volume) in preincubated plasma at 37 °C. The mixture was shaken for 60 min at 37 °C. Control incubations were carried out without substrate. Each incubation was stopped by addition of 200 μL of ice‐cold acetonitrile, vortexed, and centrifuged at 13 000 r.p.m. for 10 min. The supernatants were analyzed by LC‐UV [68].
# The metabolic stability of the compound 23 was determined in vitro by measuring the residual peak area after incubation by LC‐UV analysis. Samples were further processed by LC‐HRMS equipment for metabolite profiling. Raw data files were processed using both XCALIBUR® and COMPOUND DISCOVERER 3.2® software (Thermo Scientific) using a customized workflow for the detection and identification of the expected and unknown metabolites (Fig. S80).
# [2] = test system: AITC‐induced excitability in murine nociceptors; test: Multielectrode array (MEA): AITC-induced firing in nociceptors; type: cell-based; conditions: 5 μM compound, 100 μM AITC, P2/P1
# Method: Additionally, we investigated the effect of compound 23 on capsaicin and AITC‐induced excitability in murine nociceptors. Employing an IC50 value of 1 μM for TRPV1 and 5 μM for TRPA1 of firing inhibition by compound 23 (Fig. 4), we interrogated its ability to modulate neuronal excitability. As for TRPM8, our experimental design involved a protocol of dual agonist pulses interspersed with a washing pulse to minimize agonist‐induced channel desensitization. Compound 23 was administered 1 min prior to and during the second agonist pulse.
# Primary cultures of neonatal dorsal root ganglia were used for multielectrode array (MEA) and patch‐clamp experiments following established methodologies previously described. Neonatal dorsal root ganglia (DRGs) were obtained from Wistar rats (3–5 days old) and were isolated and digested with 0.25% (w/v) collagenase (type IA) in DMEM GlutaMax with 1% (v/v) penicillin/streptomycin (P/S) solution for 1 h at 37 °C in a 5% CO2 Thermo Scientific incubator. Following digestion, DRGs were mechanically dissociated and passed through a 100 μm cell strainer to obtain single‐cell suspensions. Suspensions were washed with DMEM GlutaMax with 10% (v/v) fetal bovine serum (FBS) and 1% (v/v) penicillin/streptomycin (P/S). Cells were then seeded in microelectrode array chambers coated with poly‐L‐lysine (8.3 μg·mL^−1) and laminin (5 μg·mL^−1). […]
structure (smiles),measurement,setting,value
"O=C(COC(=O)c1ccccc1-c1ccccc1)NC12CC3CC(CC(C3)C1)C2 [Compound 23, 2‐((3S,5S,7S)‐adamantan‐1‐ylamino)‐2‐oxoethyl [1,1′‐biphenyl]‐2‐carboxylate]",residual substrate in mouse plasma,[1],about 97%
same,attenuation of AITC‐induced firing,[2],40%
